Data on one compound can be found in patent US9738636B2, “Fused heterocyclic compounds as selective BMP inhibitors” (Vanderbilt University, priority 2012, dated 2017).

In the assay the test system is BMP4. Nature of the assay: BMP4 cell assay (BMP reporter). The class given is cell-based. Particulars: series of scaffold drawing 183 (R, R1).

In the case of `c1cc(-c2cnc3cc(-c4ccc5c(c4)OCCO5)ccn23)ccn1` [Example 6, 7-(2,3-dihydrobenzo[b][1,4]dioxin-6-yl)-3-(pyridin-4-yl)imidazo[1,2-a]pyridine], half-maximal inhibition (IC50) was put at 6.1 µM.
